Tested on: T1, 5-enolpyruvylshikimate-3-phosphate synthase (EPSPS)
T1 construct: native enzyme in leaf extract, not purified to homogeneity; partial EPSPS2 cDNA (543-bp fragment) without Pro106 or Thr102 substitution
Assay: EnzCheck phosphate release assay, leaf extract, log-logistic fit
Type: biochemical, Sorghum halepense
Settings: range of estimates over seven populations without significant differences: 2.6 (GR6), 3.4 (GR1); the others only in the figure; glyphosate 0-1000 µM; 360 nm, 10 min; read-out: I50

SMILES: O=C(O)CNCP(=O)(O)O [glyphosate]
- IC50: 2600 to 3400 nM
